In patent US12077503B2, “Substituted cyclic amides and their use as herbicides” (FMC CORPORATION, priority 2015, dated 2024):

Assays:
Format in all cases: in vivo
[1] = tested on: ragweed (common ragweed, Ambrosia elatior); experiment: Test A preemergence; conditions: Ambrosia artemisiifolia, pre-emergence, 240 h, preemergence, 0 to 100 scale where 0 is no effect and 100 is complete control, read-out: Ragweed plant response rating; for pest or weed control at 125 g/ha: 125 g ai/ha, visual injury rating, approximately 10 d; for pest or weed control at 500 g/ha: 500 g ai/ha
How it was run: (§1)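 Compounds were formulated in a non-phytotoxic solvent mixture with surfactant and applied as a preemergence directed soil spray after seeding, or sprayed postemergence over plants 2 to 10 cm tall at the one- to two-leaf stage. Evaluation after about 10 d compared treated with untreated controls, using a scale from 0 (no effect) to 100 (complete control).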

[2] = tested on: ryegrass, Italian (Italian ryegrass, Lolium multiflorum); experiment: Test A preemergence; conditions: Lolium multiflorum, pre-emergence, 240 h, preemergence, 0 to 100 scale where 0 is no effect and 100 is complete control, read-out: Ryegrass, Italian plant response rating; for pest or weed control at 125 g/ha: 125 g ai/ha, visual injury rating, approximately 10 d; for pest or weed control at 500 g/ha: 500 g ai/ha
How it was run: as §1

[3] = tested on: Kochia (Kochia scoparia); experiment: Test A preemergence; conditions: Bassia scoparia, pre-emergence, 240 h, preemergence, 0 to 100 scale where 0 is no effect and 100 is complete control, read-out: Kochia plant response rating; for pest or weed control at 125 g/ha: 125 g ai/ha, visual injury rating, approximately 10 d; for pest or weed control at 500 g/ha: 500 g ai/ha
How it was run: as §1

[4] = tested on: barnyardgrass (Echinochloa crus-galli); experiment: Test A preemergence; conditions: Echinochloa crus-galli, pre-emergence, 240 h, preemergence, 0 to 100 scale where 0 is no effect and 100 is complete control, read-out: Barnyardgrass plant response rating; for pest or weed control at 125 g/ha: 125 g ai/ha, visual injury rating, approximately 10 d; for pest or weed control at 500 g/ha: 500 g ai/ha
How it was run: as §1

[5] = tested on: giant foxtail (Setaria faberii); experiment: Test A preemergence; conditions: Setaria faberi, pre-emergence, 240 h, preemergence, 0 to 100 scale where 0 is no effect and 100 is complete control, read-out: Foxtail, Giant plant response rating; for pest or weed control at 125 g/ha: 125 g ai/ha, visual injury rating, approximately 10 d; for pest or weed control at 500 g/ha: 500 g ai/ha
How it was run: as §1

[6] = tested on: pigweed (Amaranthus retroflexus); experiment: Test A preemergence; conditions: Amaranthus retroflexus, pre-emergence, 240 h, preemergence, 0 to 100 scale where 0 is no effect and 100 is complete control, read-out: Pigweed plant response rating; for pest or weed control at 125 g/ha: 125 g ai/ha, visual injury rating, approximately 10 d; for pest or weed control at 500 g/ha: 500 g ai/ha
[7] = tested on: ducksalad (Heteranthera limosa); experiment: Test B flooded paddy test; conditions: Heteranthera limosa, 250 g ai/ha, Flood; 0 to 100 scale where 0 is no effect and 100 is complete control; read-out: Ducksalad plant response rating
How it was run: (§2)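 Flooding to 3 cm over soil accompanied treatment, which consisted of adding compound to the standing water around 2-leaf plants; depth was then maintained. Visual assessment versus controls followed at 13 to 15 d (scale 0–100, 0 meaning no effect).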

[8] = tested on: rice (Oryra sativa); experiment: Test B flooded paddy test; conditions: Oryza sativa, 250 g ai/ha, Flood; 0 to 100 scale where 0 is no effect and 100 is complete control; read-out: Rice plant response rating
How it was run: as §2

[9] = tested on: sedge, umbrella (small-flower umbrella sedge, Cyperus difformis); experiment: Test B flooded paddy test; conditions: Cyperus difformis, 250 g ai/ha, Flood; 0 to 100 scale where 0 is no effect and 100 is complete control; read-out: Sedge, Umbrella plant response rating
How it was run: as §2

[10] = tested on: barnyardgrass (Echinochloa crus-galli); experiment: Test B flooded paddy test; conditions: Echinochloa crus-galli, 250 g ai/ha, Flood; 0 to 100 scale where 0 is no effect and 100 is complete control; read-out: Barnyardgrass plant response rating
How it was run: as §2

[11] = tested on: blackgrass (Alopecurus myosuroides); experiment: Test A postemergence; conditions: Alopecurus myosuroides, post-emergence, 240 h, postemergence; for pest or weed control at 125 g/ha: 125 g ai/ha, visual injury vs untreated controls after approx. 10 d, 0 = no effect, 100 = complete control, read-out: Blackgrass plant response rating (0 to 100 scale); for pest or weed control at 500 g/ha: 500 g ai/ha, 0 to 100 scale, 0 is no effect, 100 is complete control, read-out: Blackgrass plant response rating
How it was run: as §1

[12] = tested on: ryegrass, Italian (Italian ryegrass, Lolium multiflorum); experiment: Test A postemergence; conditions: Lolium multiflorum, post-emergence, 240 h, postemergence; for pest or weed control at 125 g/ha: 125 g ai/ha, visual injury vs untreated controls after approx. 10 d, 0 = no effect, 100 = complete control, read-out: Ryegrass, Italian plant response rating (0 to 100 scale); for pest or weed control at 500 g/ha: 500 g ai/ha, 0 to 100 scale, 0 is no effect, 100 is complete control, read-out: Ryegrass, Italian plant response rating
How it was run: as §1

[13] = tested on: Kochia (Kochia scoparia); experiment: Test A postemergence; conditions: Bassia scoparia, post-emergence, 240 h, postemergence; for pest or weed control at 125 g/ha: 125 g ai/ha, visual injury vs untreated controls after approx. 10 d, 0 = no effect, 100 = complete control, read-out: Kochia plant response rating (0 to 100 scale); for pest or weed control at 500 g/ha: 500 g ai/ha, 0 to 100 scale, 0 is no effect, 100 is complete control, read-out: Kochia plant response rating
How it was run: as §1

[14] = tested on: giant foxtail (Setaria faberii); experiment: Test A postemergence; conditions: Setaria faberi, post-emergence, 240 h, postemergence; for pest or weed control at 125 g/ha: 125 g ai/ha, visual injury vs untreated controls after approx. 10 d, 0 = no effect, 100 = complete control, read-out: Foxtail, Giant plant response rating (0 to 100 scale); for pest or weed control at 500 g/ha: 500 g ai/ha, 0 to 100 scale, 0 is no effect, 100 is complete control, read-out: Foxtail, Giant plant response rating
How it was run: as §1

SMILES	pest or weed control at 125 g/ha [1] [%]	pest or weed control at 500 g/ha [1] [%]	pest or weed control at 125 g/ha [2] [%]	pest or weed control at 500 g/ha [2] [%]	pest or weed control at 125 g/ha [3] [%]	pest or weed control at 125 g/ha [4] [%]	pest or weed control at 500 g/ha [4] [%]	pest or weed control at 125 g/ha [5] [%]	pest or weed control at 500 g/ha [5] [%]	pest or weed control at 125 g/ha [6] [%]	pest or weed control at 500 g/ha [6] [%]	pest or weed control at 250 g/ha [7] [%]	pest or weed control at 250 g/ha [8] [%]	pest or weed control at 250 g/ha [9] [%]	pest or weed control at 250 g/ha [10] [%]	pest or weed control at 125 g/ha [11] [%]	pest or weed control at 500 g/ha [11] [%]	pest or weed control at 125 g/ha [12] [%]	pest or weed control at 500 g/ha [12] [%]	pest or weed control at 125 g/ha [13] [%]	other results
CSc1ccccc1NC(=O)[C@H]1C(=O)N(C)CC[C@@H]1c1ccc(C(F)(F)F)cc1 [Compound 1227]	0	0	20	70	0	0	40	50	90	30	60	80	15	0	0	0	0	0	0	0	pest or weed control at 500 g/ha [3]: 0%; pest or weed control at 500 g/ha [13]: 30%; pest or weed control at 125 g/ha [14]: 0%; pest or weed control at 500 g/ha [14]: 0%
CSc1ccccc1NC(=O)[C@H]1C(=O)N(C)C[C@@H]1c1ccc(F)cc1 [Compound 1236]	0	30	30	80	20	90	100	90	100	60	90	100	35	0	65	30	30	0	50	20	pest or weed control at 500 g/ha [3]: 90%; pest or weed control at 500 g/ha [13]: 30%; pest or weed control at 125 g/ha [14]: 30%; pest or weed control at 500 g/ha [14]: 90%
Cc1ccccc1NC(=O)[C@H]1C(=O)N(C)C[C@@H]1c1ccc(C(F)(F)F)cc1 [Compound 1239]	0	70	50	50	90	80	90	90	90	20	60	100	20	0	40	70	80	20	50	40	pest or weed control at 500 g/ha [13]: 70%; pest or weed control at 125 g/ha [14]: 90%; pest or weed control at 500 g/ha [14]: 90%
O=C1NC[C@H](c2cccc(C(F)(F)F)c2)C1C(=O)Nc1c(F)cccc1CO (some centres unmarked) [Compound 1240]	0	0	0	0	0	0	0	0	0	0	0	0	0	0	0	0	0	0	0	0	pest or weed control at 500 g/ha [3]: 0%; pest or weed control at 500 g/ha [13]: 0%; pest or weed control at 125 g/ha [14]: 0%; pest or weed control at 500 g/ha [14]: 0%
O=C1NC[C@H](c2cccc(C(F)(F)F)c2)C1C(=O)Nc1ccccc1CO (some centres unmarked) [Compound 1244]	0	0	0	50	0	80	90	90	90	0	0	30	0	0	20	0	50	0	30	0	pest or weed control at 500 g/ha [3]: 0%; pest or weed control at 500 g/ha [13]: 0%; pest or weed control at 125 g/ha [14]: 50%; pest or weed control at 500 g/ha [14]: 90%
